Earlier results as cited in patent publication US7282225B1, “Composition and methods for improving retinal health” (Occular Technologies, Inc., priority 2006, dated 2007).
Where two headings read alike, the source gives them in different places.

Legend:
animals [1] = conditions: animal study, alpha-lipoic acid supplements
animals [2] = system: animals
AMD [3] = conditions: diet of 6 mg per day
macular degeneration = conditions: dietary or supplement intake, case-control study
[4] = healthy, young men
people = conditions: more than 750 mg/day
asthma = conditions: 1-2 g/day
bladder cancer = conditions: 500 mg daily for 10 years or more
colon cancer [5] = conditions: 3 g/day
colon cancer [6] = conditions: intake of more than 157 mg/day
heart disease = conditions: more than 700 mg/day versus 60 mg/day or less
monocytes = conditions: 2 g/day
[7] = system: patients with atherosclerosis; conditions: 2 g/day
[8] = system: restenosis after angioplasty; conditions: 500 mg/day
[9] = system: age-related macular degeneration (AMD); conditions: participants at high risk (intermediate AMD, or advanced AMD in one eye only), daily oral tablets
AMD [10] = system: AMD

## O=C(O)CCCCC1CCSS1 (stereo not drawn) [alpha-lipoic acid, Alpha-Lipoic Acid]
Animals [1]
  side effects associated with amikacin and gentamicin: reduced side effects, particularly toxicity to the ear
Animals [2]
  toxic side effects associated with cisplatin and cyclophosphamide: protected against toxic side effects
rats
  cholesterol levels: improved cholesterol levels
  thyroid hormone function: altered thyroid hormone function

## CC1=C[C@H](O)CC(C)(C)[C@H]1/C=C/C(C)=C/C=C/C(C)=C/C=C/C=C(C)/C=C/C=C(C)/C=C/C1=C(C)C[C@@H](O)CC1(C)C [lutein, Lutein]
AMD [3]
  lower prevalence of AMD: 43%
Macular degeneration
  association of intake with risk of macular degeneration: most strongly associated with a reduced risk

## CC1=C(/C=C/C(C)=C/C=C/C(C)=C/CO)C(C)(C)CCC1 [retinol, Retinol]
Macular degeneration
  association of intake with risk of macular degeneration: no effect

## O=C1O[C@H]([C@@H](O)CO)C(O)=C1O [vitamin C, ascorbic acid]
[4]
  minimum intake required to completely saturate the blood plasma with vitamin C: ≥ 1000 mg/day
people
  reduction of risk of dying prematurely: 60%
asthma
  asthma symptoms: reduce asthma symptoms significantly
Bladder cancer
  reduction of risk of developing bladder cancer: 60%
Colon cancer [5]
  polyp growth in colon cancer: effectively prevent further polyp growth
Colon cancer [6]
  reduction of risk of developing colon cancer: 50%
Heart disease
  lower risk of dying from heart disease: 62%
monocytes
  adhesion of monocytes to the lining of blood vessels: reduce adhesion of monocytes
[7]
  vasomotor dysfunction: effectively reverses
[8]
  restenosis (reclosing of opened arteries) after angioplasty: significantly reduced
Cataracts and glaucoma; large doses
  open angle glaucoma: can be reversed
Cataracts and glaucoma; supplementation
  risk of cataracts and glaucoma: significantly lower
Macular degeneration
  association of intake with risk of macular degeneration: little effect

## Cc1c(C)c2c(c(C)c1O)CC[C@@](C)(CCC[C@H](C)CCC[C@H](C)CCCC(C)C)O2 [vitamin E, alpha-tocopherol]
Macular degeneration
  association of intake with risk of macular degeneration: negative effects

## CC1=C(/C=C/C(C)=C/C=C/C(C)=C/C=C/C=C(C)/C=C/C=C(C)/C=C/C2=C(C)C[C@@H](O)CC2(C)C)C(C)(C)C[C@H](O)C1 [zeaxanthin, Zeaxanthin]
Macular degeneration
  association of intake with risk of macular degeneration: most strongly associated with a reduced risk

## [O-2].[Zn+2] [zinc alone]
[9]
  Reduced risk of developing advanced AMD: about 21%
  Reduced risk of vision loss: about 11%
[9]; listed as Zinc Alone
  Reduced risk of developing advanced AMD: AMD by about 21%.
  Reduced risk of vision loss: loss by about 11%.

## [Zn] [zinc]
AMD [10]; zinc group
  accumulation of drusen: less accumulation of drusen
AMD [10]; zinc supplements
  treatment of AMD: effective
